Test results: ChEMBL document CHEMBL4627319, “Novel class of benzimidazole-thiazole hybrids: The privileged scaffolds of potent anti-inflammatory activity with dual inhibition of cyclooxygenase and 15-lipoxygenase enzymes” (Bioorg Med Chem, 2020)

What was measured:
[1] = biological target: Prostaglandin G/H synthase 1 (Homo sapiens, UniProt P23219); assay: Inhibition of human COX1 expressed in CHO cells assessed as reduction in arachidonic acid-stimulated PGE2 production; format: cell-based
[2] = biological target: T1, Prostaglandin G/H synthase 1 (Ovis aries, UniProt P05979); assay: Inhibition of ovine COX1 using arachidonic acid as substrate preincubated for 10 mins followed by substrate addition and measured after 2 mins by EIA
T1 sequence (P05979 whole entry): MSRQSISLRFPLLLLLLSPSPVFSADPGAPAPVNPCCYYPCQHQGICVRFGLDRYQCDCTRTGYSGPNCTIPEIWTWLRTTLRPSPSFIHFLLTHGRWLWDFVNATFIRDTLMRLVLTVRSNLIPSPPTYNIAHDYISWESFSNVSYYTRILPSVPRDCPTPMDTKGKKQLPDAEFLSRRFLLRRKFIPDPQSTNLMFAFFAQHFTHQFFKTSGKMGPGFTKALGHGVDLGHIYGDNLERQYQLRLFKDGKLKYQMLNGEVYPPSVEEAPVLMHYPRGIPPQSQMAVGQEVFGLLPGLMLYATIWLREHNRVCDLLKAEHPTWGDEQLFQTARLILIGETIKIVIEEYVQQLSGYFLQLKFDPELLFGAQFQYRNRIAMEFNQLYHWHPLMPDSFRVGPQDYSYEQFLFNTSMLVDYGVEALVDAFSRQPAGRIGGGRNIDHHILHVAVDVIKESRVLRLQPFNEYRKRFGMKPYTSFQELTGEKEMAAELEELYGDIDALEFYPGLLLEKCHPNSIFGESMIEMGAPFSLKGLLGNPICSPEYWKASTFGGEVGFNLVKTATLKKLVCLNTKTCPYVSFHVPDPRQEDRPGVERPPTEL

[3] = Inhibition of soybean 15-LOX using arachidonic acid or linoleic acid as substrate preincubated for 5 mins followed by substrate addition and measured after 10 mins by colorimetric assay; set-up: species or system Glycine max
[4] = biological target: T2, Prostaglandin G/H synthase 2 (Homo sapiens, UniProt P35354); assay: Inhibition of COX2 (unknown origin)
T2 sequence (P35354 whole entry): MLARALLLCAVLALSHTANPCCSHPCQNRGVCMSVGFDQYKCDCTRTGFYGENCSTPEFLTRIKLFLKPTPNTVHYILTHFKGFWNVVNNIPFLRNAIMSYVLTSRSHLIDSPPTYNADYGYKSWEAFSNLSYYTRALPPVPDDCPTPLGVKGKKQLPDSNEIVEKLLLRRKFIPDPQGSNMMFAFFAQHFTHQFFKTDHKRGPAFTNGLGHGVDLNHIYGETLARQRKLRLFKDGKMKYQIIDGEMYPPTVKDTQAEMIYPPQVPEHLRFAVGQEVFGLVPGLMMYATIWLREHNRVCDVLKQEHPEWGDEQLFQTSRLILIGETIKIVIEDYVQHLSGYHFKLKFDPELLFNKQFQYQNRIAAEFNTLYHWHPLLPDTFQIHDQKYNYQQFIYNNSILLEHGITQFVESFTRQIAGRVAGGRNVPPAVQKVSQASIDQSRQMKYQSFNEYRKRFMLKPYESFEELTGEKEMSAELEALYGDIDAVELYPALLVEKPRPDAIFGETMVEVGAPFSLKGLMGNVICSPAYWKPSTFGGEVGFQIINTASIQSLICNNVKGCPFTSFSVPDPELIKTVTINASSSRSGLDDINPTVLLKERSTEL

[5] = tested on: Rattus norvegicus; assay: Antiinflammatory activity in albino rat assessed as reduction in carrageenan-induced paw edema by measuring thickness of right paw at 28 uM/kg, ip measured at 0.5 hrs by calliper method (reference value: 7.33 +/- 0.17 cm); format: functional
[6] = tested on: Rattus norvegicus; assay: Antiinflammatory activity in albino rat assessed as reduction in carrageenan-induced paw edema by measuring thickness of right paw at 28 uM/kg, ip measured at 2 hrs by calliper method (reference value: 7.67 +/- 0.17 cm); format: functional
[7] = tested on: Rattus norvegicus; assay: Anti-inflammatory activity in albino rat assessed as inhibition of carrageenan-induced paw edema at 28 uM/kg, ip measured at 4 hrs by calliper method relative to control; format: functional
[8] = tested on: Rattus norvegicus; assay: Anti-inflammatory activity in albino rat assessed as inhibition of carrageenan-induced paw edema at 28 uM/kg, ip measured at 0.5 hrs by calliper method relative to control; format: functional
[9] = tested on: Rattus norvegicus; assay: Antiinflammatory activity in albino rat assessed as reduction in carrageenan-induced paw edema by measuring thickness of right paw at 28 uM/kg, ip measured at 4 hrs by calliper method (reference value: 8.50 +/- 0.58 cm); format: functional
[10] = tested on: Rattus norvegicus; assay: Anti-inflammatory activity in albino rat assessed as inhibition of carrageenan-induced paw edema at 28 uM/kg, ip measured at 3 hrs by calliper method relative to indomethacin; format: functional; set-up: scale not given: the % may be the effect or the level left
[11] = tested on: Rattus norvegicus; assay: Antiinflammatory activity in albino rat assessed as reduction in carrageenan-induced paw edema by measuring thickness of right paw at 28 uM/kg, ip measured at 1 hr by calliper method (reference value: 7.33 +/- 0.17 cm); format: functional
[12] = Ulcerogenic activity in albino rat assessed as effect on gastric mucosa membrane at 10 to 50 mg/kg, po measured after 6 hrs by H and E staining based light microscopic assay; format: toxicity, organism-based; settings: in vivo
[13] = tested on: Rattus norvegicus; assay: Anti-inflammatory activity in albino rat assessed as inhibition of carrageenan-induced paw edema at 28 uM/kg, ip measured at 3 hrs by calliper method relative to control; format: functional
[14] = tested on: Rattus norvegicus; assay: Antiinflammatory activity in albino rat assessed as reduction in carrageenan-induced paw edema by measuring thickness of right paw at 28 uM/kg, ip measured at 3 hrs by calliper method (reference value: 7.83 +/- 0.33 cm); format: functional
[15] = tested on: Rattus norvegicus; assay: Antiinflammatory activity in albino rat assessed as reduction in carrageenan-induced paw edema by measuring thickness of right paw at 28 uM/kg, ip measured immediately by calliper method (reference value: 6.83 +/-0.17 cm); format: functional
[16] = tested on: Rattus norvegicus; assay: Anti-inflammatory activity in albino rat assessed as inhibition of carrageenan-induced paw edema at 28 uM/kg, ip measured at 1 hr by calliper method relative to control; format: functional
[17] = Ulcerogenic activity in albino rat assessed as congestion of blood vessel at 10 to 50 mg/kg, po measured after 6 hrs by H and E staining based light microscopic assay; format: toxicity, organism-based; settings: in vivo
[18] = tested on: Rattus norvegicus; assay: Anti-inflammatory activity in albino rat assessed as inhibition of carrageenan-induced paw edema at 28 uM/kg, ip measured at 4 hrs by calliper method relative to indomethacin; format: functional; set-up: scale not given: the % may be the effect or the level left
[19] = tested on: Rattus norvegicus; assay: Anti-inflammatory activity in albino rat assessed as inhibition of carrageenan-induced paw edema at 28 uM/kg, ip measured at 2 hrs by calliper method relative to control; format: functional
[20] = Ulcerogenic activity in albino rat assessed as damage of gastric mucosa surface epithelium at 10 to 50 mg/kg, po measured after 6 hrs by H and E staining based light microscopic assay; format: toxicity, organism-based; settings: in vivo
[21] = Ulcerogenic activity in albino rat assessed as ulcer formation with distorted gastric gland at 10 to 50 mg/kg, po measured after 6 hrs by H and E staining based light microscopic assay; format: toxicity, organism-based; settings: in vivo
[22] = Ulcerogenic activity in albino rat assessed as damage of scarred mucosal epithelium at 10 to 50 mg/kg, po measured after 6 hrs by H and E staining based light microscopic assay; format: toxicity, organism-based; settings: in vivo

Prostaglandin G/H synthase 1 (Homo sapiens, UniProt P23219), sequence (P23219 whole entry): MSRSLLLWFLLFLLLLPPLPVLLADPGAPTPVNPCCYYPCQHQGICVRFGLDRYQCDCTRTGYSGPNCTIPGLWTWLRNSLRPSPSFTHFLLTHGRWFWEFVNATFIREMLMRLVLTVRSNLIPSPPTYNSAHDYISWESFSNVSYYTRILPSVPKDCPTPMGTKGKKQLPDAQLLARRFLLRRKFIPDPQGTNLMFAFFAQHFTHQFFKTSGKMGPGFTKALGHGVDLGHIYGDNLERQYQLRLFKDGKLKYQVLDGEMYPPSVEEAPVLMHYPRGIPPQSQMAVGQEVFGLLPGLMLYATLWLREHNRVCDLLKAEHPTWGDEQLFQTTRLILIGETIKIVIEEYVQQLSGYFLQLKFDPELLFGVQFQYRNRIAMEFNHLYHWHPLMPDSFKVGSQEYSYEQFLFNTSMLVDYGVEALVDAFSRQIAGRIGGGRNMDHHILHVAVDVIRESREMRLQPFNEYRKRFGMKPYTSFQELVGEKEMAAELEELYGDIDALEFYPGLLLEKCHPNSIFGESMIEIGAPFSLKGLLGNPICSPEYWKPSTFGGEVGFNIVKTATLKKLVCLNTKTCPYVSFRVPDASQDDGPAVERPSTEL

Compound `CS(=O)(=O)c1ccc(-c2c(-c3ccccc3)nc3sccn23)cc1` has an IC50 [1] of over 50 µM.

In the case of `CSc1nc2ccccc2n1-c1csc(NC(=O)c2ccccc2)n1`, the IC50 [2] is reported as 5.33 µM and the IC50 [3] is reported as 4.12 µM.

`CSc1nc2ccccc2n1-c1csc(N)n1` gave an IC50 [2] of 4.17 µM and an IC50 [3] of 6.56 µM.

For `CSc1nc2ccccc2n1-c1csc2nc(-c3ccccc3)cn12`, the IC50 [2] was 5.97 µM and the IC50 [3] was 5.46 µM.

Work on `O=[N+]([O-])c1ccc(-c2nnc(Cn3c(CN4CCCCC4)nc4ccccc43)o2)cc1` yielded an IC50 [4] of 0.06 to 0.81 µM.

In the case of `Clc1ccc(-c2nnc(Cn3c(CN4CCCCC4)nc4ccccc43)o2)cc1`, the IC50 [4] is reported as 0.06 to 0.81 µM.

With `CCn1c(-n2cc(/C=N/N=C3/NC(=O)CS3)c(-c3ccc(OC)cc3)n2)nc2c1c(=O)n(C)c(=O)n2C` the IC50 [3] was 1.98 µM.

In the case of `CCn1c(-n2cc(/C=N/N=c3\[nH]c(-c4ccc(Br)cc4)cs3)c(-c3ccc(OC)cc3)n2)nc2c1c(=O)n(C)c(=O)n2C`, the IC50 [3] is reported as 1.76 µM.

Work on `CSc1nc2ccccc2n1-c1csc(=N)n1CC(=O)c1ccccc1` yielded an IC50 [2] of 9.84 µM and an IC50 [3] of 3.98 µM.

`CSc1nc2ccccc2n1-c1csc(NC(=O)c2ccc(C)cc2)n1` showed an IC50 [2] of 6.23 µM and an IC50 [3] of 4.96 µM.

`CSc1nc2ccccc2n1-c1csc(NC/C(C)=N/N=c2\scc(-c3ccccc3)n2-c2ccccc2)n1` showed an IC50 [2] of 12.4 µM and an IC50 [3] of 1.85 µM.

`O=C1N/C(=N\c2nnc(-c3ccc(O)cc3)s2)S/C1=C\c1ccc(Cl)c(Cl)c1` gave an IC50 [3] of 11.9 µM.

Work on `CSc1nc2ccccc2n1-c1csc(NCC(=O)c2ccc(Cl)cc2)n1` yielded an IC50 [2] of 8.14 µM and an IC50 [3] of 4.15 µM.

`Fc1ccccc1-c1nnc(Cn2c(CN3CCCCC3)nc3ccccc32)o1` gave an IC50 [4] of 0.06 to 0.81 µM.

`CCn1c(-n2cc(/C=N/N=c3\scc(-c4ccc(Br)cc4)n3-c3ccccc3)c(-c3ccc(OC)cc3)n2)nc2c1c(=O)n(C)c(=O)n2C` gave an IC50 [3] of 1.82 µM.

In the case of `CSc1nc2ccccc2n1-c1csc(NC/C(C)=N/N=C2\SCC(=O)N2c2ccccc2)n1`, the Activity [5] is reported as 5.67 cm, the Activity [6] is reported as 4.17 cm and the “inhibition (INH)” value [7] is reported as 80.57%. The “inhibition (INH)” value [8] was 38.4%, the Activity [9] was 4.5 cm and the Activity [10] was 119.4%. For the same compound, the Activity [11] was 4.67 cm, the IC50 [2] was 10.6 µM and the Activity [12] was “Non-Toxic”. For the same compound, the IC50 [3] was 1.96 µM, the “inhibition (INH)” value [13] was 82.83% and the Activity [14] was 3.83 cm. For the same compound, the Activity [15] was 7 cm, the “inhibition (INH)” value [16] was 61.6% and the Activity [17] was “Toxic”. The Activity [18] was 102.21% and the “inhibition (INH)” value [19] was 74.83%.

Compound `CSc1nc2ccccc2n1-c1csc(NC/C(C)=N/N=c2\scc(-c3ccc(C)cc3)n2-c2ccccc2)n1` has an IC50 [2] of 13.2 µM and an IC50 [3] of 2.14 µM.

With `CSc1nc2ccccc2n1-c1csc(NCC(C)=O)n1` the IC50 [2] was 11.7 µM and the IC50 [3] was 2.93 µM.

With `CSc1nc2ccccc2n1-c1csc(NC/C(C)=N/N=c2\scc(-c3ccc(Cl)cc3)n2-c2ccccc2)n1` the Activity [5] was 6.33 cm, the Activity [6] was 5 cm and the “inhibition (INH)” value [8] was 22.67%. For the same compound, the Activity [9] was 5.67 cm, the Activity [10] was 109.08% and the Activity [11] was 5.33 cm. For the same compound, the IC50 [2] was 13.2 µM, the IC50 [3] was 1.67 µM and the “inhibition (INH)” value [13] was 75.67%. For the same compound, the Activity [14] was 4.67 cm, the Activity [15] was 7.17 cm and the “inhibition (INH)” value [16] was 46.27%. For the same compound, the Activity [18] was 93.2% and the “inhibition (INH)” value [19] was 56.67%.

With `Fc1ccc(-c2nnc(Cn3c(CN4CCCCC4)nc4ccccc43)o2)cc1` the IC50 [4] was 0.06 to 0.81 µM.

In the case of `CSc1nc2ccccc2n1-c1csc(NC/C(C)=N/NC(=S)Nc2ccccc2)n1`, the Activity [5] is reported as 5.67 cm, the Activity [6] is reported as 4.67 cm and the “inhibition (INH)” value [7] is reported as 68.8%. The “inhibition (INH)” value [8] was 38.43%, the Activity [9] was 5.5 cm and the Activity [10] was 102.31%. It also gave an Activity [11] of 5 cm, an IC50 [2] of 10.7 µM and an IC50 [3] of 2.98 µM. The “inhibition (INH)” value [13] was 70.97%, the Activity [14] was 4.83 cm and the Activity [15] was 7.33 cm. The “inhibition (INH)” value [16] was 53.73%, the Activity [18] was 87.28% and the “inhibition (INH)” value [19] was 64.1%.

Compound `CSc1nc2ccccc2n1-c1csc(NC(=O)c2ccc(Cl)cc2)n1` has an IC50 [2] of 7.11 µM and an IC50 [3] of 5.11 µM.

In the case of `COc1ccc2c(c1)c(CC(=O)O)c(C)n2C(=O)c1ccc(Cl)cc1` [INDOMETHACIN], the Activity [5] is reported as 5.83 cm, the Activity [6] is reported as 4.67 cm and the Activity [20] is reported as “Toxic”. For the same compound, the “inhibition (INH)” value [7] was 78.83%, the “inhibition (INH)” value [8] was 34.7% and the Activity [9] was 4.17 cm. For the same compound, the Activity [11] was 5 cm, the “inhibition (INH)” value [13] was 69.37% and the Activity [14] was 4.5 cm. The Activity [15] was 7.17 cm, the “inhibition (INH)” value [16] was 54.17% and the Activity [21] was “Toxic”. The Activity [17] was “Toxic”, the “inhibition (INH)” value [19] was 63.7% and the Activity [22] was “Toxic”.

In the case of `O=c1c(O)c(-c2ccc(O)c(O)c2)oc2cc(O)cc(O)c12` [QUERCETIN], the IC50 [3] is reported as 3.34 µM.
